# Results as given in ChEMBL document CHEMBL3627608, “Crystal structures of human RIP2 kinase catalytic domain complexed with ATP-competitive inhibitors: Foundations for understanding inhibitor selectivity” (Bioorg Med Chem, 2015).
# Columns and labels:
# [1] = biological target: Serine/threonine-protein kinase pim-2 (Homo sapiens) (UniProt Q9P1W9); experiment: Inhibition of PIM2 (unknown origin) at 10 uM after 120 mins P33 radiolabeled kinase activity assay
# [2] = biological target: T1, Serine/threonine-protein kinase TAO1 (Homo sapiens) (UniProt Q7L7X3); experiment: Inhibition of TAOK1 (unknown origin) at 10 uM after 120 mins P33 radiolabeled kinase activity assay
# T1 sequence (whole entry): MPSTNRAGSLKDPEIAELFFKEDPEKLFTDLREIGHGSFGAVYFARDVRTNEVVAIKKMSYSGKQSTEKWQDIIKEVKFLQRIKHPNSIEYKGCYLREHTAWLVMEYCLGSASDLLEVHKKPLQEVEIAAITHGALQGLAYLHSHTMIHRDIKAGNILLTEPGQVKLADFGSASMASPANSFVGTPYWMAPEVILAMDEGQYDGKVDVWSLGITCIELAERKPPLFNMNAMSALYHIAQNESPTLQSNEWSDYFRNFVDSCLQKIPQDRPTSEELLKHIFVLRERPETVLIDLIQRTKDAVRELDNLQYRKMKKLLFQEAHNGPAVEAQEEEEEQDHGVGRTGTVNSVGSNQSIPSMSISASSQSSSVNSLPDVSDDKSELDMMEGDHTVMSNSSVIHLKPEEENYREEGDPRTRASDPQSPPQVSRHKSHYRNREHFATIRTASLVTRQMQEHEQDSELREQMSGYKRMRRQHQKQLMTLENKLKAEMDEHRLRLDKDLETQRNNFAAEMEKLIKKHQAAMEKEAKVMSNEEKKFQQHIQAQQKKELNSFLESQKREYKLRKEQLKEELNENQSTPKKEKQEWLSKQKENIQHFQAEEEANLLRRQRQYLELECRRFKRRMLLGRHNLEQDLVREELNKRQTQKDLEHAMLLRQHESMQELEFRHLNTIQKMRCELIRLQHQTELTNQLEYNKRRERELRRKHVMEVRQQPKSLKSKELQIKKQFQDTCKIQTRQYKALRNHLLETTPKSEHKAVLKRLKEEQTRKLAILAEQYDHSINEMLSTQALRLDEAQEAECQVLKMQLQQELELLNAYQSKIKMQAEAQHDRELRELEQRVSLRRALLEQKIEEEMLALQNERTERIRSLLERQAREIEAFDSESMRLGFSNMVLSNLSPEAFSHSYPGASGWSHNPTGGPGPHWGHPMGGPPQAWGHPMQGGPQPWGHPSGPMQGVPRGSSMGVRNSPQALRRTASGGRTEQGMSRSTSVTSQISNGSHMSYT
# [3] = biological target: Dual specificity protein kinase CLK1 (Homo sapiens) (UniProt P49759); experiment: Inhibition of CLK1 (unknown origin) at 10 uM after 120 mins P33 radiolabeled kinase activity assay
# [4] = biological target: T2, Ephrin type-B receptor 2 (Homo sapiens) (UniProt P29323); experiment: Inhibition of EPHB2 (unknown origin) at 10 uM after 120 mins P33 radiolabeled kinase activity assay
# T2 sequence (whole entry): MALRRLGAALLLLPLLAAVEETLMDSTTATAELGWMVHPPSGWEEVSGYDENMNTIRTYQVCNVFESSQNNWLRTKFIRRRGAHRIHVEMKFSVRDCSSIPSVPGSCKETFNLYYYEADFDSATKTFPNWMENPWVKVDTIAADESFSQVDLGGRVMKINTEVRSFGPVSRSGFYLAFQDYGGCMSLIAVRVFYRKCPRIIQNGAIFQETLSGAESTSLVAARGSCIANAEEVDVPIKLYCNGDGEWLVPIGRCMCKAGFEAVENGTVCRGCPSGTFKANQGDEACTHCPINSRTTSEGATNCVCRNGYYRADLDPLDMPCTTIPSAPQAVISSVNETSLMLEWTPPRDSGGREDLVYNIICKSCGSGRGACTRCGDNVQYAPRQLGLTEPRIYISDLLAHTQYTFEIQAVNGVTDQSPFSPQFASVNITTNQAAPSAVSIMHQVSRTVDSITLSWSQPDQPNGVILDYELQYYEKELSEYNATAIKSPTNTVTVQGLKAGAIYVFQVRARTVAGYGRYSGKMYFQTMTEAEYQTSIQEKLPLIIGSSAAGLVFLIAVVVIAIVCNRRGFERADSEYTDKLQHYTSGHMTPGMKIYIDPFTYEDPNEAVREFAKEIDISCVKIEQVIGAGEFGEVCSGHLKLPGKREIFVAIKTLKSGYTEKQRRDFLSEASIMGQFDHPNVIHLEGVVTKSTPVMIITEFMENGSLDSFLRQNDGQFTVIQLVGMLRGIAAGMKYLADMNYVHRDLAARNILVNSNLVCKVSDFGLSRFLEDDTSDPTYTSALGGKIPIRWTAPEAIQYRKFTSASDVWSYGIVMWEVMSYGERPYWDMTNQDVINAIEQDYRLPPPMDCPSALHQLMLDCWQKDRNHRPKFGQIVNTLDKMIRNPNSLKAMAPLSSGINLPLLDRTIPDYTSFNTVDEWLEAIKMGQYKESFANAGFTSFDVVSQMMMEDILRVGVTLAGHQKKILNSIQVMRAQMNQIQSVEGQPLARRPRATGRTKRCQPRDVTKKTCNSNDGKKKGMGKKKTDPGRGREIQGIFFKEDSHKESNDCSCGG
# [5] = biological target: Cell division cycle 7-related protein kinase (Homo sapiens) (UniProt O00311); experiment: Inhibition of CDC7 (unknown origin) at 10 uM after 120 mins P33 radiolabeled kinase activity assay
# [6] = biological target: Mitogen-activated protein kinase 11 (Homo sapiens) (UniProt Q15759); experiment: Inhibition of P38beta (unknown origin) at 10 uM after 120 mins P33 radiolabeled kinase activity assay
# Mitogen-activated protein kinase 11 (Homo sapiens), sequence (Q15759 whole entry): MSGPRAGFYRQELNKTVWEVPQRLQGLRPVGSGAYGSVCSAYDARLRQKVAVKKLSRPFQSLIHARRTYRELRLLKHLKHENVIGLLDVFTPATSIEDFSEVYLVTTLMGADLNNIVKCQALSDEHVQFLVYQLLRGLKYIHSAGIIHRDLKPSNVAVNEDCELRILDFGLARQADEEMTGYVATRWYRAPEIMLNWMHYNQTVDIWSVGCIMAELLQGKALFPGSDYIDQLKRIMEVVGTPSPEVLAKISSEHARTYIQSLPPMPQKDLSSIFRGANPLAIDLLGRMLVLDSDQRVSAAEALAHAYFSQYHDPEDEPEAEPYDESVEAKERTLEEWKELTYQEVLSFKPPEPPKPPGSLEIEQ
# Cell division cycle 7-related protein kinase (Homo sapiens), sequence (O00311 whole entry, looked up): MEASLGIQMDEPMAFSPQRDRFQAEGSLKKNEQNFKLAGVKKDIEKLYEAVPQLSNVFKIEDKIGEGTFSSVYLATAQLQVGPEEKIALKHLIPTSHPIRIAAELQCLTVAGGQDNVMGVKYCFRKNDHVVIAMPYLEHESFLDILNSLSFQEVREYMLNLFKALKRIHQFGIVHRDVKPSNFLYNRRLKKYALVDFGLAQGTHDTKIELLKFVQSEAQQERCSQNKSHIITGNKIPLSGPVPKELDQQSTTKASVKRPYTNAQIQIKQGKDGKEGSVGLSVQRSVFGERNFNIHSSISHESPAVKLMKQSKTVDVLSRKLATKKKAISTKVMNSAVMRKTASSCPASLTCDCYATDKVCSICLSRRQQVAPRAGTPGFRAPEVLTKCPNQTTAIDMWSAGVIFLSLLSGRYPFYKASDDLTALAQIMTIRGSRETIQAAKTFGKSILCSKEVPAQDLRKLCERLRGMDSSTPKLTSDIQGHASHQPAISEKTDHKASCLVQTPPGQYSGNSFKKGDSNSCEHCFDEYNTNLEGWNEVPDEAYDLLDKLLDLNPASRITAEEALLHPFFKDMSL
# Serine/threonine-protein kinase pim-2 (Homo sapiens), sequence (Q9P1W9 whole entry, looked up): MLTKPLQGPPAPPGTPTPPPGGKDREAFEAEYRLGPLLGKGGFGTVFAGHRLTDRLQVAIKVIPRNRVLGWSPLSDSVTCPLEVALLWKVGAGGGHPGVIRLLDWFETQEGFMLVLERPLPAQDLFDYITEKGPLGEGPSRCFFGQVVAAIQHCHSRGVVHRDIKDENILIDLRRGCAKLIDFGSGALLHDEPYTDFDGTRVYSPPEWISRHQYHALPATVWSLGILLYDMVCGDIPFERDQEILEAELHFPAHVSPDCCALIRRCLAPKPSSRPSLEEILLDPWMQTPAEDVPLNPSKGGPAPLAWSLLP
# Dual specificity protein kinase CLK1 (Homo sapiens), sequence (P49759 whole entry, looked up): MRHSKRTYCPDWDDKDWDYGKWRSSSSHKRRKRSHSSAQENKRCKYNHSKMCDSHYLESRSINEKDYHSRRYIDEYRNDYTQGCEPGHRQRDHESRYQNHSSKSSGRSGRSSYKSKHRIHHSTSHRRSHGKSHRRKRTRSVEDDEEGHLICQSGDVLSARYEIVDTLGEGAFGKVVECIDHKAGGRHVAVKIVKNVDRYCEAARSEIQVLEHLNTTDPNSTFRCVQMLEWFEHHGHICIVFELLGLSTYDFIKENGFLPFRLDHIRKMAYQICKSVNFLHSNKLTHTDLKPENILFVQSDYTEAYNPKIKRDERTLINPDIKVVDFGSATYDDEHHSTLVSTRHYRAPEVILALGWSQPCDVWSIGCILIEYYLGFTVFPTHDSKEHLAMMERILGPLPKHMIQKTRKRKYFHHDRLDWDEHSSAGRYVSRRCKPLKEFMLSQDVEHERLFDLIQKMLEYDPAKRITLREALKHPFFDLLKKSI
inhibition [1] [%],inhibition [2] [%],inhibition [3] [%],inhibition [4] [%],inhibition [5] [%],inhibition [6] [%],Compound
0.63,1.85,13.4,20.3,6.05,10,COCCNC(=O)c1ccc2c(c1)nc(-c1cnc(-c3ccc(Cl)cc3)[nH]1)n2CCOC
6.09,43.6,14.1,74.9,9.73,-5.84,CS(=O)(=O)c1cccc(Nc2nccc(-c3sc(N4CCOCC4)nc3-c3cccc(NS(=O)(=O)c4c(F)cccc4F)c3)n2)c1
3.72,90.4,50.7,97.7,5.38,96.2,CC(C)(C)c1cc(NC(=O)Nc2ccc(Oc3ccncc3)cc2)no1
